Laboratory results as given in the NIST ThermoML archive (doi:10.1021/je9003178).
Numbers after ± are expanded uncertainties.

Test: activity coefficient (dimensionless); of the first substance listed, at infinite dilution; xn = mol fraction of the nth substance listed
Conditions: Liquid, Chromatography, x1 = 0

SMILES: C1CCCCCC1 [cycloheptane] + CCn1cc[n+](C)c1.N#CN=C=[N-]
- activity coefficient (322.65 K): 128 ± 6
- activity coefficient (332.85 K): 169 ± 8
- activity coefficient (343.15 K): 221 ± 10

SMILES: CCCC=O [butanal] + CCn1cc[n+](C)c1.N#CN=C=[N-]
- activity coefficient (322.65 K): 2.23 ± 0.1
- activity coefficient (332.85 K): 2.22 ± 0.1
- activity coefficient (343.15 K): 2.21 ± 0.1

SMILES: C1CCCCC1 [cyclohexane] + CCCCCC[N+](C)(C)C.O=S(=O)([N-]S(=O)(=O)C(F)(F)F)C(F)(F)F
- activity coefficient (322.65 K): 6.6 ± 0.3
- activity coefficient (343.85 K): 5.9 ± 0.27
- activity coefficient (352.65 K): 5.74 ± 0.26

SMILES: CCC[N+](=O)[O-] [1-nitropropane] + CCn1cc[n+](C)c1.N#CN=C=[N-]
- activity coefficient (322.65 K): 1.51 ± 0.06
- activity coefficient (332.85 K): 1.5 ± 0.06
- activity coefficient (343.15 K): 1.49 ± 0.06

SMILES: CC(C)CC(C)(C)C [2,2,4-trimethylpentane] + CCn1cc[n+](C)c1.N#CN=C=[N-]
- activity coefficient (322.65 K): 202 ± 9.5
- activity coefficient (332.85 K): 180 ± 8.5
- activity coefficient (343.15 K): 162 ± 7.6

SMILES: CC(C)CO [2-methyl-1-propanol] + CCCCCC[N+](C)(C)C.O=S(=O)([N-]S(=O)(=O)C(F)(F)F)C(F)(F)F
- activity coefficient (322.65 K): 2.1 ± 0.095
- activity coefficient (343.85 K): 1.71 ± 0.071
- activity coefficient (352.65 K): 1.63 ± 0.066

SMILES: CCOC(C)=O [ethyl acetate] + CCCCCC[N+](C)(C)C.O=S(=O)([N-]S(=O)(=O)C(F)(F)F)C(F)(F)F
- activity coefficient (322.65 K): 0.72 ± 0.029
- activity coefficient (343.85 K): 0.748 ± 0.029
- activity coefficient (352.65 K): 0.776 ± 0.028

SMILES: ClC(Cl)(Cl)Cl [tetrachloromethane] + CCn1cc[n+](C)c1.N#CN=C=[N-]
- activity coefficient (322.65 K): 4.49 ± 0.2
- activity coefficient (332.85 K): 4.61 ± 0.21
- activity coefficient (343.15 K): 4.71 ± 0.21

SMILES: CO [methanol] + CCCCCC[N+](C)(C)C.O=S(=O)([N-]S(=O)(=O)C(F)(F)F)C(F)(F)F
- activity coefficient (322.65 K): 1.16 ± 0.035
- activity coefficient (343.85 K): 0.971 ± 0.025
- activity coefficient (352.65 K): 0.956 ± 0.026

SMILES: CCC(C)=O [butanone] + CCCCCC[N+](C)(C)C.O=S(=O)([N-]S(=O)(=O)C(F)(F)F)C(F)(F)F
- activity coefficient (322.65 K): 0.422 ± 0.034
- activity coefficient (343.85 K): 0.365 ± 0.035
- activity coefficient (352.65 K): 0.354 ± 0.035

SMILES: CCCCCCCCCCCC [dodecane] + CCCCCC[N+](C)(C)C.O=S(=O)([N-]S(=O)(=O)C(F)(F)F)C(F)(F)F
- activity coefficient (322.65 K): 68.1 ± 3.2
- activity coefficient (343.85 K): 55.8 ± 2.6
- activity coefficient (352.65 K): 52.9 ± 2.5

SMILES: CCC[N+](=O)[O-] [1-nitropropane] + CCCCCC[N+](C)(C)C.O=S(=O)([N-]S(=O)(=O)C(F)(F)F)C(F)(F)F
- activity coefficient (322.65 K): 0.699 ± 0.03
- activity coefficient (343.85 K): 0.681 ± 0.03
- activity coefficient (352.65 K): 0.695 ± 0.03

SMILES: Cc1ccccc1 [toluene] + CCn1cc[n+](C)c1.N#CN=C=[N-]
- activity coefficient (322.65 K): 4.22 ± 0.19
- activity coefficient (332.85 K): 4.21 ± 0.19
- activity coefficient (343.15 K): 4.21 ± 0.19

SMILES: CCCCO [butan-1-ol] + CCCCCC[N+](C)(C)C.O=S(=O)([N-]S(=O)(=O)C(F)(F)F)C(F)(F)F
- activity coefficient (322.65 K): 2.25 ± 0.1
- activity coefficient (343.85 K): 1.83 ± 0.079
- activity coefficient (352.65 K): 1.74 ± 0.073

SMILES: C=O [methanal] + CCn1cc[n+](C)c1.N#CN=C=[N-]
- activity coefficient (322.65 K): 0.32 ± 0.04
- activity coefficient (332.85 K): 0.35 ± 0.04
- activity coefficient (343.15 K): 0.37 ± 0.03

SMILES: ClCCl [dichloromethane] + CCn1cc[n+](C)c1.N#CN=C=[N-]
- activity coefficient (322.65 K): 0.67 ± 0.03
- activity coefficient (332.85 K): 0.73 ± 0.03
- activity coefficient (343.15 K): 0.78 ± 0.03

SMILES: C[N+](=O)[O-] [nitromethane] + CCCCCC[N+](C)(C)C.O=S(=O)([N-]S(=O)(=O)C(F)(F)F)C(F)(F)F
- activity coefficient (322.65 K): 0.975 ± 0.025
- activity coefficient (343.85 K): 0.567 ± 0.031
- activity coefficient (352.65 K): 0.568 ± 0.031

SMILES: ClCCl [dichloromethane] + CCCCCC[N+](C)(C)C.O=S(=O)([N-]S(=O)(=O)C(F)(F)F)C(F)(F)F
- activity coefficient (322.65 K): 0.678 ± 0.03
- activity coefficient (343.85 K): 0.728 ± 0.029
- activity coefficient (352.65 K): 0.759 ± 0.029

SMILES: C=CCCCC [hex-1-ene] + CCn1cc[n+](C)c1.N#CN=C=[N-]
- activity coefficient (322.65 K): 43.6 ± 2
- activity coefficient (332.85 K): 41.6 ± 1.9
- activity coefficient (343.15 K): 39.9 ± 1.9

SMILES: C#CCCCCC [1-heptyne] + CCCCCC[N+](C)(C)C.O=S(=O)([N-]S(=O)(=O)C(F)(F)F)C(F)(F)F
- activity coefficient (322.65 K): 3.57 ± 0.16
- activity coefficient (343.85 K): 3.5 ± 0.16
- activity coefficient (352.65 K): 3.54 ± 0.16

SMILES: CCC(C)=O [butanone] + CCn1cc[n+](C)c1.N#CN=C=[N-]
- activity coefficient (322.65 K): 1.59 ± 0.06
- activity coefficient (332.85 K): 1.46 ± 0.06
- activity coefficient (343.15 K): 1.33 ± 0.05

SMILES: C=O [methanal] + CCCCCC[N+](C)(C)C.O=S(=O)([N-]S(=O)(=O)C(F)(F)F)C(F)(F)F
- activity coefficient (322.65 K): 0.228 ± 0.037
- activity coefficient (343.85 K): 0.272 ± 0.036
- activity coefficient (352.65 K): 0.311 ± 0.035

SMILES: C1CCOC1 [tetrahydrofuran] + CCCCCC[N+](C)(C)C.O=S(=O)([N-]S(=O)(=O)C(F)(F)F)C(F)(F)F
- activity coefficient (322.65 K): 0.686 ± 0.03
- activity coefficient (343.85 K): 0.754 ± 0.029
- activity coefficient (352.65 K): 0.808 ± 0.028

SMILES: C1CCCCC1 [cyclohexane] + CCn1cc[n+](C)c1.N#CN=C=[N-]
- activity coefficient (322.65 K): 46 ± 2.1
- activity coefficient (332.85 K): 42.1 ± 2
- activity coefficient (343.15 K): 38.7 ± 1.8

SMILES: ClC(Cl)Cl [trichloromethane] + CCn1cc[n+](C)c1.N#CN=C=[N-]
- activity coefficient (322.65 K): 0.76 ± 0.03
- activity coefficient (332.85 K): 0.81 ± 0.03
- activity coefficient (343.15 K): 0.86 ± 0.03

SMILES: CO [methanol] + CCn1cc[n+](C)c1.N#CN=C=[N-]
- activity coefficient (322.65 K): 0.44 ± 0.03
- activity coefficient (332.85 K): 0.42 ± 0.03
- activity coefficient (343.15 K): 0.41 ± 0.03

SMILES: CCOCC [diethyl ether] + CCn1cc[n+](C)c1.N#CN=C=[N-]
- activity coefficient (322.65 K): 9.88 ± 0.45
- activity coefficient (332.85 K): 9.71 ± 0.45
- activity coefficient (343.15 K): 9.56 ± 0.44

SMILES: C#CCCCC [1-hexyne] + CCn1cc[n+](C)c1.N#CN=C=[N-]
- activity coefficient (322.65 K): 8.7 ± 0.4
- activity coefficient (332.85 K): 8.47 ± 0.39
- activity coefficient (343.15 K): 8.44 ± 0.39

SMILES: OCC(F)(F)F [2,2,2-trifluoroethanol] + CCn1cc[n+](C)c1.N#CN=C=[N-]
- activity coefficient (322.65 K): 0.1 ± 0.04
- activity coefficient (332.85 K): 0.11 ± 0.04
- activity coefficient (343.15 K): 0.11 ± 0.04
